Data reported in patent US4100291A, “Novel 1,4-benzodioxanes” (Roussel Uclaf, priority 1976, dated 1978).
Counter-ions that a name gives are not always drawn.

Legend:
[1] = Acute toxicity in mice, intraperitoneal (Table I); settings: mouse, in vivo, ip, suspension in carboxymethylcellulose, observed one week
Description: The results are in Table I.

[2] = test system: carotidine arterial pressure; assay: Hypotensive activity in anesthetized rats, intravenous (Table II); type: in vivo, male rats of the Sprague-Dawley SPF strain; settings: for % Variation in pressure: compared to initial carotid arterial pressure; for Duration of Activity: time for pressure to return to initial value
Protocol: The hypotensive activity was determined on male rats of the Sprague-Dawley SPF strain weighing about 300 g which had been anestesized with nembutal (50 mg/kg intraveinously). The product was administered intraveinously by the jugular vein and the carotidine arterial pressure was measured before and after the administration of the test product. Table II reports the variations expressed in percent of arterial pressure after administration of the test product as compared to the initial arterial pressure as well as the time necessary for the pressure to return to the initial value.

[3] = test system: arterial pressure measured at the rat's tail; assay: Antihypertensive activity in spontaneous hypertensive rats, oral (Table III); type: in vivo, spontaneous hypertendus male rats of the Okamoto strain
Protocol: The antihypertensive activity was determined on spontaneous hypertendus male rats of the Okamoto strain 8 weeks old and the test products were orally administered daily for 9 days. The arterial pressure was measured at the rat's tail by means of a pneumatic collar connected to an electronic transducer of pressure.

[4] = daily dose 50 mg/kg oral, 1st Day, 1 hr after 1st ad.
[5] = daily dose 50 mg/kg oral, 1st Day, 4 hr. after

SMILES | LD50 at 168 h [1] | % Variation in pressure ([2]; 1 mg/kg) | Duration of Activity ([2]; 1 mg/kg) | % Pressure variation [3, 4] | % Pressure variation [3, 5] | other results
OC(CN1CCC(c2c[nH]c3ccccc23)CC1)C1COc2ccccc2O1 (racemic) [Example 1, (d,l) erythro α-(2,3-dihydro-1,4-benzodioxin-2-yl)-4-([1H]-indol-3-yl)-1-piperidine-ethanol hydrochloride] | ~100 mg/kg | -25% | 45 min | -11% | -12% | % Variation in pressure ([2]; 0.1 mg/kg): -10%; Duration of Activity ([2]; 0.1 mg/kg): 30 min; % Pressure variation ([3]; daily dose 50 mg/kg oral for 9 days, 10th Day, 24 hr. after 1st ad. (so in the source)): -15%
COc1ccc2[nH]cc(C3CCN(CC(O)C4COc5ccccc5O4)CC3)c2c1 (single isomer, unassigned) [Example 2 isomer A, isomer A of (dl) α-(2,3-dihydro-1,4-benzodioxin-2-yl)-4-(5-methoxy-[1H]-indol-3-yl)-1-piperidine-ethanol] | ~500 mg/kg | – | 60 min | – | – | % Variation in pressure ([2]; 1 mg/kg, listed as 2 isomer A): -14%
COc1ccc2[nH]cc(C3CCN(CC(O)C4COc5ccccc5O4)CC3)c2c1 (single isomer, unassigned) [Example 2 isomer B, isomer B of (dl) α-(2,3-dihydro-1,4-benzodioxin-2-yl)-4-(5-methoxy-[1H]-indol-3-yl)-1-piperidine-ethanol] | – | – | 60 min | – | – | % Variation in pressure ([2]; 1 mg/kg, listed as 2 isomer B): -20%
COc1ccc2c(C3CCN(CC(O)C4COc5ccccc5O4)CC3)c(C)[nH]c2c1.Cl (stereo not drawn) [Example 3, α-(2,3-dihydro-1,4-benzodioxin-2-yl)-4-(6-methoxy-2-methyl-[1H]-indol-3-yl)-1-piperidine-ethanol hydrochloride] | – | – | 60 min | -26% | -27% | % Variation in pressure ([2]; 10 mg/kg): -25%; Duration of Activity ([2]; 10 mg/kg): 60 min
OC(CN1CC=C(c2c[nH]c3ccccc23)CC1)C1COc2ccccc2O1 (stereo not drawn) [Example 4, α-(2,3-dihydro-1,4-benzodioxin-2-yl)-4-([1H]-indol-3-yl)-1,2,3,6-tetrahydro-1-pyridine-ethanol] | – | – | – | -10% | -18% | –
Cn1cc(C2CCN(CC(O)C3COc4ccccc4O3)CC2)c2ccccc21 (stereo not drawn) [Example 5, α-(2,3-dihydro-1,4-benzodioxin-2-yl)-4-(1-methyl-[1H]-indol-3-yl)-1-piperidine-ethanol] | ~250 mg/kg | -10% | 30 min | – | – | –
